SMILES strings stand for the structures.

One test deals with MDA-MB-231-luc tumors. Kind of test: Orthotopic MDA-MB-231-luc tumor model, treatment from day 7. It counts as in vivo, nude mice. As to conditions: 20 mg/kg daily i.p. An excerpt:
(§1) All animal studies are approved by the Scripps Florida IACUC. Stable pools of MDA-MB-231-Luc, MDA-MB-231, MDA-MB-468, SKBR3 or BT474 cells were established by injection of 2×10^6 cancer cells into the mammary fat pads of 6-week old female athymic nude mice (Charles River Laboratories). Establishment of BCM-4013 patient derived xenografts were as described (19). Briefly, fresh xenograft tumor fragments (˜1 mm^3) were transplanted into the cleared mammary fat pad of recipient SCID/Bg mice (Charles River Laboratories). Mice were treated with SR-3029 or vehicle (10:10:80, DMSO:Tween-80:Water) at 20 mg/kg daily by i.p. injection. Tumor volumes were measured as the indicated intervals using calipers or by luminescence imaging using the IVIS 100 imager (exposure time, 1-60 sec; binning 8; field of view 15-cm; f/stop 1; open filter) following subcutaneous injection of luciferin (15 mg/ml, Goldbio Technology). Average radiance (p/s/cm^2/sr) was determined from tumor region-of-interest (ROI) using Living-Image (Xenogen) analysis software.

For another test, the target named is FLT3 (Homo sapiens, UniProt P36888). Conditions: cited from earlier work.
Sequence of FLT3 (P36888 564-993 limits assumed): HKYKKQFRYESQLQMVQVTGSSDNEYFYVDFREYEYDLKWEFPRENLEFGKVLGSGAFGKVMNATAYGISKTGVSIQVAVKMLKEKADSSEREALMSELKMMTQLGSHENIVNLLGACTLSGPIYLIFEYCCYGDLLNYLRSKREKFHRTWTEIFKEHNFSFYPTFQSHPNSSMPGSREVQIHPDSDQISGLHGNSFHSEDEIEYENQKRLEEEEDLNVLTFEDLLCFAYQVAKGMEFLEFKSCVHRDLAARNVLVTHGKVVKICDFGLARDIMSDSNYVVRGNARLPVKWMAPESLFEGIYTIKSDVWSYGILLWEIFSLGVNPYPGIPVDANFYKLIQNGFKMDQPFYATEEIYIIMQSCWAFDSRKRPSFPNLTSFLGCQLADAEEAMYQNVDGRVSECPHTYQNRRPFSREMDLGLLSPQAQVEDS
In the next test the test system is BCM-4013 PDX tumors. The test is described as follows: Patient-derived xenograft (PDX) model. It counts as in vivo, SCID/Bg mice. As to conditions: 20 mg/kg daily i.p.
From the text: as §1
For apoptotic detection in cryosections tumors and small intestines were fixed in 10% buffered formalin for 2 hr, incubated in 20% sucrose overnight and embedded in OCT. Frozen sections ([…]) were mounted and stained using the ApopTag Red In Situ Kit according to the manufacturer instructions (CHEMICON). […]
(Xenograft models place foreign cells or tissue in a host animal.)

For test [1], the system named is breast cancer cell types overexpressing CK1δ. Kind of test: Cell proliferation assay (Cell-Titer Glo, 72 hr). It counts as cell-based. Conditions: Homo sapiens. The protocol: Cell proliferation was measured 72 hr after SR-3029 or vehicle treatment using Cell-Titer Glo (Promega) according to the manufacturers' instructions. EC50 values were determined using non-linear regression and a four-parameter algorithm (GraphPad Prism5). For clonogenic assays, cells were plated in 6-well dishes in triplicate at a density of 500-1000 cells per well. After overnight incubation, SR-3029 or vehicle (DMSO) was added to media for 72 hr and cells were allowed to grow out for 7-10 days, during which media was changed every 2-3 days in the absence of compound. Colonies were fixed in 4% paraformaldehyde/PBS and stained with 0.5% methylene blue in 50% ethanol for 1 hr at room temperature and de-stained with water. Colonies with greater than 50 cells were counted using a low magnification light microscope.

Test [2] deals with activated β-catenin signaling. The test is described as follows: Wnt/β-catenin markers in MDA-MB-231 tumors of treated mice. It is filed as in vivo. Conditions: 20 mg/kg once daily i.p. An excerpt:
All animal studies are approved by the Scripps Florida IACUC. Stable pools of MDA-MB-231-Luc, MDA-MB-231, MDA-MB-468, SKBR3 or BT474 cells were established by injection of 2×10^6 cancer cells into the mammary fat pads of 6-week old female athymic nude mice (Charles River Laboratories). Establishment of BCM-4013 patient derived xenografts were as described (19). Briefly, fresh xenograft tumor fragments (˜1 mm^3) were transplanted into the cleared mammary fat pad of recipient SCID/Bg mice (Charles River Laboratories). Mice were treated with SR-3029 or vehicle (10:10:80, DMSO:Tween-80:Water) at 20 mg/kg daily by i.p. injection. Tumor volumes were measured as the indicated intervals using calipers or by luminescence imaging using the IVIS 100 imager (exposure time, 1-60 sec; binning 8; field of view 15-cm; f/stop 1; open filter) following subcutaneous injection of luciferin (15 mg/ml, Goldbio Technology). Average radiance (p/s/cm^2/sr) was determined from tumor region-of-interest (ROI) using Living-Image (Xenogen) analysis software. SDS-PAGE gel electrophoresis was performed using NuPAGE 4-12% Bis-Tris gels (Invitrogen) and transferred to PVDF membranes by semi-dry transfer using trans-blot transfer medium (Biorad). Membranes were blocked in Odyssey blocking buffer (LI-COR Biosciences) and incubated overnight at 4° C. with primary antibodies. After repeated washes with TBST (20 mM Tris, pH 7.6, 140 mM NaCl and 0.1% Tween-20) blots were incubated with the appropriate IRDye-conjugated secondary antibody (LI-COR Biosciences) and imaged using the LI-COR Odyssey. Bands were quantified using the Odyssey software (LI-COR Biosciences). The following antibodies were used in this study: CK1δ and Histone H4 (Abcam), CK1ε, c-Myc (9E10), Cyclin-D1 and β-actin (Santa Cruz), β-catenin (Cell Signaling), GAPDH (Millipore) and CD44 (R&D Systems). Total RNA was obtained using the RNeasy Plus Mini Kit (Qiagen) and 1-2 μg of RNA was reverse transcribed with Superscript III First Strand Synthesis System (Life Technologies). Quantitative PCR was performed using the Power SYBR Green PCR Master Mix (Life Technologies) and the ABI7900HT Fast Real-Time PCR System. Intron-spanning gene-specific primer pairs were designed using the Primer3 algorithm and relative expression values for each gene of interest obtained by normalizing to GAPDH mRNA expression using the ^ΔΔCt method.

Test [3] has as its system Wnt-3a-directed induction of the TCF reporter. The test is described as follows: Wnt-3a-induced TCF-dependent luciferase reporter assay in HEK293T cells. It counts as cell-based, human. The protocol: MDA-MB-231 or HEK293 cells stably expressing the TCF luciferase reporter 7TFP (39) were transfected with β-catenin-S33Y or empty vector (pcDNA). After 18 hr cells were seeded onto a 96-well plate at a density of 6000 cells/well. After 24 hr cells were treated with SR-3029 or vehicle and incubated for 6 hr prior to addition of 1 μg/ml recombinant human Wnt3a (R&D Systems) or PBS. After 3 hr, reporter assays were performed using BriteLite Plus (Perkin Elmer), which was added in equal volume directly to the media and luminescence read using a Spectramax plate reader (Molecular Devices).

The test system of another test is MDA-MB-231 TNBC cells. The test is described as follows: Cell proliferation / growth assay. It is filed as cell-based, human. Conditions: forced expression of β-catenin-S33Y or β-catenin N90; 72 hr.
For a further test, the system named is kinome. Conditions: cited from earlier work.
The next test relates to CK1δ and CK1ε. As to conditions: cited from earlier work.

`Fc1cccc(-n2cnc3c(NCc4nc5ccc(F)c(F)c5[nH]4)nc(N4CCOCC4)nc32)c1` [SR-3029]: the tumor growth result in the test on MDA-MB-231-luc tumors (single agent, start seven days after engraftment) was “markedly impaired tumor growth”. Moreover, the “recipients that developed tumors” value in the test on MDA-MB-231-luc tumors (n=8 per cohort) stood at 2. Besides, the FLT3 off-target activity entry at FLT3 is given as “common (and weak) off-target”. In the test on BCM-4013 PDX tumors, the “tumor cell apoptosis (TUNEL)” value was “triggered tumor cell apoptosis”. In the test on BCM-4013 PDX tumors (p=0.0002), the “growth of PDX tumors” value was “significantly inhibited the growth”. The EC50 (usually the concentration that produces a half-maximal response) in [1] fell in the range of 5 to 70 nM. In [2] (7 days), the “CCND1, WNT3, WNT9A and RARA mRNA transcripts in tumors” value is “decreases”; the “SFRP1 transcripts in tumors” value is reported as “marked increase”; the “expression of nuclear β-catenin in tumors” value is reported as “markedly reduced”. For the same compound, the “CCND1 protein in tumors” value in test [2] (day 7) is reported as “down-regulation”. Further, the “Wnt-3a-directed induction of the TCF reporter” value in test [3] (1 μg/ml Wnt-3a, 3 hr) is “abolished”. The “TCF reporter activity with constitutively active β-catenin (S33Y)” value in [3] (forced expression of β-catenin S33Y) is “refractory”. In the test on MDA-MB-231 TNBC cells, the “growth inhibitory and apoptotic effects with constitutively active β-catenin” value was “sufficient to rescue the growth inhibitory and apoptotic effects”. Besides, the off-target kinase affinity result in the test with kinome (CDK4, MYLK4 and FLT3, in addition to CK1δ and CK1ε) is listed as “weaker affinity for only three kinases”. In addition, in the test on kinome, the “fraction of the kinome inhibited” value was 1%. The “type of inhibition, potency and selectivity” value in the test with CK1δ and CK1ε was “ATP competitive inhibitor with exceptional potency and selectivity”.

(Values after US10603322B2, “Therapeutic targeting of casein kinase 1δ in breast cancer” (The Scripps Research Institute, priority 2015, dated 2020).)
